Measured values taken from ChEMBL document CHEMBL4382233, “Discovery of novel arylethenesulfonyl fluorides as potential candidates against methicillin-resistant of Staphylococcus aureus (MRSA) for overcoming multidrug resistance of bacterial infections” (2019).
In brackets after ≈: the same amount, converted by molar mass.

Legend:
Assay type in all cases: functional
Staphylococcus aureus [1] = assay: Antibacterial activity against methicillin-resistant Staphylococcus aureus after overnight incubation by micro broth dilution analysis
[2] = tested on: Staphylococcus epidermidis; assay: Antibacterial activity against methicillin-resistant Staphylococcus epidermidis after overnight incubation by micro broth dilution analysis
[3] = tested on: Staphylococcus haemolyticus; assay: Antibacterial activity against methicillin-resistant Staphylococcus haemolyticus after overnight incubation by micro broth dilution analysis
Staphylococcus aureus [4] = assay: Antibacterial activity against methicillin-resistant Staphylococcus aureus assessed as zone of inhibition at 50 ug/mL after 24 hrs by agar disc diffusion method; details: read-out: IZ
[5] = tested on: Staphylococcus epidermidis; assay: Antibacterial activity against methicillin-resistant Staphylococcus epidermidis assessed as zone of inhibition at 20 ug/mL after 24 hrs by agar disc diffusion method; details: read-out: IZ
[6] = tested on: Staphylococcus haemolyticus; assay: Antibacterial activity against methicillin-resistant Staphylococcus haemolyticus assessed as zone of inhibition at 50 ug/mL after 24 hrs by agar disc diffusion method; details: read-out: IZ
[7] = tested on: Staphylococcus haemolyticus; assay: Antibacterial activity against methicillin-resistant Staphylococcus haemolyticus assessed as zone of inhibition at 200 ng/mL after 24 hrs by agar disc diffusion method; details: read-out: IZ
[8] = tested on: Staphylococcus haemolyticus; assay: Antibacterial activity against methicillin-resistant Staphylococcus haemolyticus assessed as zone of inhibition at 400 ng/mL after 24 hrs by agar disc diffusion method; details: read-out: IZ
[9] = tested on: Staphylococcus haemolyticus; assay: Antibacterial activity against methicillin-resistant Staphylococcus haemolyticus assessed as zone of inhibition at 800 ng/mL after 24 hrs by agar disc diffusion method; details: read-out: IZ
[10] = tested on: Staphylococcus epidermidis; assay: Antibacterial activity against methicillin-resistant Staphylococcus epidermidis assessed as zone of inhibition at 200 ng/mL after 24 hrs by agar disc diffusion method; details: read-out: IZ
[11] = tested on: Staphylococcus epidermidis; assay: Antibacterial activity against methicillin-resistant Staphylococcus epidermidis assessed as zone of inhibition at 400 ng/mL after 24 hrs by agar disc diffusion method; details: read-out: IZ
[12] = tested on: Staphylococcus epidermidis; assay: Antibacterial activity against methicillin-resistant Staphylococcus epidermidis assessed as zone of inhibition at 800 ng/mL after 24 hrs by agar disc diffusion method; details: read-out: IZ
Staphylococcus aureus [13] = assay: Antibacterial activity against methicillin-resistant Staphylococcus aureus assessed as zone of inhibition at 200 ng/mL after 24 hrs by agar disc diffusion method; details: read-out: IZ
Staphylococcus aureus [14] = assay: Antibacterial activity against methicillin-resistant Staphylococcus aureus assessed as zone of inhibition at 400 ng/mL after 24 hrs by agar disc diffusion method; details: read-out: IZ
Staphylococcus aureus [15] = assay: Antibacterial activity against methicillin-resistant Staphylococcus aureus assessed as zone of inhibition at 800 ng/mL after 24 hrs by agar disc diffusion method; details: read-out: IZ
Staphylococcus aureus [16] = assay: Induction of cellular content release in methicillin-resistant Staphylococcus aureus assessed as DNA content by measuring optical density at 260 nm at MIC after 240 mins by UV-visible spectrophotometric analysis
Staphylococcus aureus [17] = assay: Antibiofilm activity against methicillin-resistant Staphylococcus aureus planktonic biofilm assessed as optical density at 492 nm at MIC after 24 hrs by crystal violet staining-based UV-visible spectrophotometric analysis

Structure (SMILES)	MIC99 (Staphylococcus aureus [1])	MIC99 [2]	MIC99 [3]	zone of inhibition at 50 µg/mL (Staphylococcus aureus [4])	zone of inhibition at 20 µg/mL [5]	zone of inhibition at 50 µg/mL [6]	zone of inhibition at 0.2 µg/mL [7]	zone of inhibition at 0.4 µg/mL [8]	zone of inhibition at 0.8 µg/mL [9]	zone of inhibition at 0.2 µg/mL [10]	zone of inhibition at 0.4 µg/mL [11]	zone of inhibition at 0.8 µg/mL [12]	zone of inhibition at 0.2 µg/mL (Staphylococcus aureus [13])	zone of inhibition at 0.4 µg/mL (Staphylococcus aureus [14])	zone of inhibition at 0.8 µg/mL (Staphylococcus aureus [15])	OD (Staphylococcus aureus [16])	OD (Staphylococcus aureus [17])
CSc1ccc(/C=C/S(=O)(=O)F)cc1	41.1 µg/mL (≈ 177 µM)	0.835 µg/mL (≈ 3.59 µM)	0.838 µg/mL (≈ 3.61 µM)	6.2 mm	6.4 mm	8.2 mm	3.1 mm	5.2 mm	7.4 mm								
O=S(=O)(F)/C=C/c1ccc(Br)cc1	48.2 µg/mL (≈ 182 µM)	0.837 µg/mL (≈ 3.16 µM)	66.1 µg/mL (≈ 249 µM)	7.5 mm	7.3 mm	6.1 mm				5.2 mm	6.2 mm	7.5 mm					
O=S(=O)(F)/C=C/c1ccccc1Br	0.839 µg/mL (≈ 3.16 µM)	0.809 µg/mL (≈ 3.05 µM)	25.3 µg/mL (≈ 95.5 µM)	20.1 mm	14.1 mm	11.2 mm	1.1 mm	2.2 mm	3.3 mm	10.1 mm	11.5 mm	14.2 mm	3.5 mm	4.4 mm	7.2 mm	1.58	0.725
O=S(=O)(F)/C=C/c1cc(O)cc(O)c1	17 µg/mL (≈ 78 µM)	0.846 µg/mL (≈ 3.88 µM)	49 µg/mL (≈ 225 µM)	12.2 mm	9.3 mm	4.2 mm				3.1 mm	4.2 mm	6.2 mm	3.5 mm	4.2 mm	4.5 mm		
O=S(=O)(F)/C=C/c1cccc(I)c1	46 µg/mL (≈ 148 µM)	0.825 µg/mL (≈ 2.64 µM)	23.1 µg/mL (≈ 74.2 µM)	12.3 mm	8.2 mm	8.2 mm	0 mm	0 mm	3.2 mm	6.1 mm	7.1 mm	8.1 mm					
CC(=O)c1ccccc1/C=C/S(=O)(=O)F	16.1 µg/mL (≈ 70.7 µM)	0.816 µg/mL (≈ 3.58 µM)	50.2 µg/mL (≈ 220 µM)	8.2 mm	10.2 mm	4.1 mm				3.3 mm	4.2 mm	10.5 mm	3.5 mm	4.1 mm	5.4 mm		
CC(C)c1cccc(/C=C/S(=O)(=O)F)c1	16.1 µg/mL (≈ 70.3 µM)	0.81 µg/mL (≈ 3.55 µM)	43 µg/mL (≈ 189 µM)	20.1 mm	18 mm	4.2 mm				9.2 mm	12.2 mm	15.1 mm	3.1 mm	3.5 mm	4.2 mm		
Cc1ccccc1/C=C/S(=O)(=O)F	0.849 µg/mL (≈ 4.24 µM)	17.2 µg/mL (≈ 85.8 µM)	54.1 µg/mL (≈ 270 µM)	15.4 mm	15.3 mm	5.4 mm				2.2 mm	3.4 mm	4.5 mm	4.2 mm	5.1 mm	6.4 mm		
CCOC(=O)/C=C/C=C/S(=O)(=O)F	40.3 µg/mL (≈ 193 µM)	47 µg/mL (≈ 226 µM)	56.1 µg/mL (≈ 269 µM)	4.1 mm	8.2 mm	7.5 mm	0 mm	3.2 mm	5.1 mm	3.3 mm	4.1 mm	3.1 mm					
O=Cc1cccc(/C=C/S(=O)(=O)F)c1	17.2 µg/mL (≈ 80.2 µM)	41.1 µg/mL (≈ 192 µM)	0.828 µg/mL (≈ 3.87 µM)	10.3 mm	6.5 mm	8.2 mm	2.2 mm	5.1 mm	6.1 mm				3.1 mm	3.5 mm	4.2 mm		
O=[N+]([O-])c1ccccc1/C=C/C=C/S(=O)(=O)F	47 µg/mL (≈ 183 µM)	44 µg/mL (≈ 171 µM)	16.2 µg/mL (≈ 62.8 µM)	5.5 mm	6.2 mm	6.5 mm	3.2 mm	4.2 mm	5.2 mm								
CC(=O)c1ccc(/C=C/S(=O)(=O)F)cc1	0.822 µg/mL (≈ 3.6 µM)	54.2 µg/mL (≈ 237 µM)	0.84 µg/mL (≈ 3.68 µM)	14.1 mm	6.5 mm	7.2 mm	3.3 mm	5.2 mm	6.1 mm				6.2 mm	8.2 mm	10.2 mm		
O=S(=O)(F)/C=C/C=C/c1cccc(C(F)(F)F)c1	44.1 µg/mL (≈ 157 µM)	0.822 µg/mL (≈ 2.93 µM)	55 µg/mL (≈ 196 µM)	6.2 mm	8.5 mm	4.5 mm				6.2 mm	7.1 mm	8.5 mm					
Cc1ccc(/C=C/S(=O)(=O)F)c(C)c1	43.1 µg/mL (≈ 201 µM)	0.813 µg/mL (≈ 3.79 µM)	43.3 µg/mL (≈ 202 µM)	6.5 mm	10.7 mm	3.5 mm				2.5 mm	6.2 mm	11.1 mm					
O=S(=O)(F)/C=C/c1cccc(Br)c1	0.813 µg/mL (≈ 3.07 µM)	58.2 µg/mL (≈ 219 µM)	16.1 µg/mL (≈ 60.8 µM)	17.1 mm	4.5 mm	8.5 mm	32 mm	42 mm	52 mm				5.1 mm	10.1 mm	12 mm		
O=S(=O)(F)/C=C/c1cc(C(F)(F)F)cc(C(F)(F)F)c1	0.814 µg/mL (≈ 2.53 µM)	60.2 µg/mL (≈ 187 µM)	18.1 µg/mL (≈ 56.3 µM)	14.4 mm	6.5 mm	7.1 mm	0 mm	3.1 mm	4.2 mm				6.2 mm	7.1 mm	10.3 mm		
O=S(=O)(F)/C=C/c1ccc(OC(F)(F)F)cc1	40.2 µg/mL (≈ 149 µM)	0.81 µg/mL (≈ 3 µM)	61.2 µg/mL (≈ 227 µM)	6.1 mm	17.6 mm	4.3 mm				7.1 mm	8.3 mm	10.4 mm					
O=S(=O)(F)/C=C/c1ccccc1	18.2 µg/mL (≈ 97.5 µM)	15.2 µg/mL (≈ 81.4 µM)	20.1 µg/mL (≈ 108 µM)	8.2 mm	11.2 mm	7.2 mm	0 mm	1.2 mm	3.2 mm	0.1 mm	4.2 mm	5.5 mm	3.5 mm	4.2 mm	4.5 mm		
O=S(=O)(F)/C=C/C=C/c1cccc(F)c1	48 µg/mL (≈ 209 µM)	0.82 µg/mL (≈ 3.56 µM)	50.1 µg/mL (≈ 218 µM)	7.2 mm	8.3 mm	5.5 mm				4.2 mm	6.1 mm	8.3 mm					
Cc1cccc(/C=C/S(=O)(=O)F)c1	0.844 µg/mL (≈ 4.22 µM)	57.2 µg/mL (≈ 286 µM)	0.812 µg/mL (≈ 4.06 µM)	10.1 mm	3.5 mm	12.2 mm	6.1 mm	8.2 mm	10.3 mm				4.3 mm	5.2 mm	6.2 mm		
O=S(=O)(F)/C=C/c1ccc(C(F)(F)F)cc1	0.815 µg/mL (≈ 3.21 µM)	0.812 µg/mL (≈ 3.19 µM)	60.2 µg/mL (≈ 237 µM)	9.1 mm	12.1 mm	3.5 mm				9.1 mm	10.1 mm	11.4 mm	6.2 mm	10.1 mm	15.1 mm		
